Measurements published in ChEMBL document CHEMBL1158517, “Discovery of carmegliptin: a potent and long-acting dipeptidyl peptidase IV inhibitor for the treatment of type 2 diabetes” (Bioorg Med Chem Lett, 2010).
Activity calls are given as the source filed them. No cut-off for these calls is given here.

Key:
[1] = Distribution coefficient, log D at pH 7.4; type: physicochemical; conditions: octanol/water
[2] = Permeability coefficient by PAMPA; type: ADME
Rattus norvegicus [3] = experiment: Antidiabetic activity in Zucker fa/fa rat assessed as reduction in glucose level at 0.3 mg/kg pretreated 2 hrs before glucose challenge measured after 40 mins by oral glucose tolerance test; type: functional; set-up: scale not given: the % may be the effect or the level left
hERG (KCNH2) [4] = target: T1, hERG (KCNH2) (Homo sapiens, UniProt Q12809); experiment: Inhibition of human ERG at 10 uM by patch clamp assay
T1 sequence (Q12809 whole entry): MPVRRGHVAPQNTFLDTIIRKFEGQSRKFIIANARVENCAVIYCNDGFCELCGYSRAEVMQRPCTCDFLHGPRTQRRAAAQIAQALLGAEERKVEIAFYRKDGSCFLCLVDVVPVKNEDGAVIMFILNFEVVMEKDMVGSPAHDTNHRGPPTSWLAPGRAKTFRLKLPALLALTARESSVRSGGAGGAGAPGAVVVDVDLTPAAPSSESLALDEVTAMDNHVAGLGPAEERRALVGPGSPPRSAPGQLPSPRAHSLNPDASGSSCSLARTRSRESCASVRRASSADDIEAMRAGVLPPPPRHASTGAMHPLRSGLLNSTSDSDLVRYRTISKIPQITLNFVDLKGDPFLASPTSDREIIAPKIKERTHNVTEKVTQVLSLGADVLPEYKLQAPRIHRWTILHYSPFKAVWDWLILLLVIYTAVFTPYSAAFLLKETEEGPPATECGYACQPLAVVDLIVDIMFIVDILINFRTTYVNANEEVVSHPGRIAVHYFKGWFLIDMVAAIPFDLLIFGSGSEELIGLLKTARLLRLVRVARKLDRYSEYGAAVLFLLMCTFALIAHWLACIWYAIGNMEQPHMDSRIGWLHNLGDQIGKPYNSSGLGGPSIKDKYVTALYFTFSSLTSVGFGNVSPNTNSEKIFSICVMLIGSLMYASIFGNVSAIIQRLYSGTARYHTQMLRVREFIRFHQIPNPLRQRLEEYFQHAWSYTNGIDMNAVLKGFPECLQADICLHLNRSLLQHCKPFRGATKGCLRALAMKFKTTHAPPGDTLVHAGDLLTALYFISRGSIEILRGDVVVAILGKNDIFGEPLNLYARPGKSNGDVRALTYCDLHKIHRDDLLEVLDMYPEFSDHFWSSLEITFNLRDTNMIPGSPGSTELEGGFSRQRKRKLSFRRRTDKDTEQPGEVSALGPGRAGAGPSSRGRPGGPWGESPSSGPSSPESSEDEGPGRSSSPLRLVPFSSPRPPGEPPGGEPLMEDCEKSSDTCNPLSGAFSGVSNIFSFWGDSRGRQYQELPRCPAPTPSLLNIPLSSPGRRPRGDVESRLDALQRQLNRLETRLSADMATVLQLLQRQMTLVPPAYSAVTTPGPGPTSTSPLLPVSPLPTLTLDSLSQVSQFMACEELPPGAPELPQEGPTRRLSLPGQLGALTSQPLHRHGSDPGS

[5] = Clearance in Wistar rat at 1 mg/kg, iv; type: ADME, organism-based; set-up: dose 1 mg/kg, route intravenous; conditions: in vivo
[6] = Clearance in cynomolgus monkey at 1 mg/kg, iv; type: ADME, organism-based, Macaca fascicularis; set-up: dose 1 mg/kg, route intravenous; conditions: in vivo
[7] = Volume of distribution at steady state in Wistar rat at 1 mg/kg, iv; type: ADME, organism-based; set-up: dose 1 mg/kg, route intravenous; conditions: in vivo, read-out: Vdss
[8] = Volume of distribution at steady state in cynomolgus monkey at 1 mg/kg, iv; type: ADME, organism-based, Macaca fascicularis; set-up: dose 1 mg/kg, route intravenous; conditions: in vivo, read-out: Vdss
[9] = Half life in Wistar rat at 1 mg/kg, iv; type: ADME, organism-based; set-up: dose 1 mg/kg, route intravenous; conditions: in vivo
[10] = Half life in cynomolgus monkey at 1 mg/kg, iv; type: ADME, organism-based, Macaca fascicularis; set-up: dose 1 mg/kg, route intravenous; conditions: in vivo
[11] = Oral bioavailability in Wistar rat at 3 mg/kg; type: ADME, organism-based; conditions: in vivo
[12] = Oral bioavailability in cynomolgus monkey at 3 mg/kg; type: ADME, organism-based, Macaca fascicularis; conditions: in vivo
Phospholipidosis = experiment: In vitro phospholipidosis at <20uM; type: ADME
Mus musculus [13] = experiment: Antidiabetic activity in db/db mouse assessed as reduction in glucose AUC at 10 mg/kg by oral glucose tolerance test relative to control; type: functional; set-up: scale not given: the % may be the effect or the level left
Mus musculus [14] = experiment: Antidiabetic activity in db/db mouse assessed as reduction in fasting glucose level at 10 mg/kg; type: functional, organism-based; set-up: dose 10 mg/kg
Rattus norvegicus [15] = experiment: Antidiabetic activity in Zucker fa/fa rat assessed as increase in glucose infusion rate at 20 mg/kg daily once for 7 days by euglycemic hyperinsulinemic clamp; type: functional, organism-based; set-up: dose 20 mg/kg
Rattus norvegicus [16] = experiment: Antidiabetic activity in Zucker fa/fa rat assessed as reduction in hepatic glucose production at 20 mg/kg daily once for 7 days by euglycemic hyperinsulinemic clamp; type: functional
hERG (KCNH2) [17] = target: T1, hERG (KCNH2); experiment: Inhibition of human ERG by patch clamp assay
Cynomolgus monkey [18] = experiment: Inhibition of DPP4 in cynomolgus monkey plasma assessed as remaining activity at 3 mg/kg, po after 24 hrs relative to control; type: functional, Macaca fascicularis
Cynomolgus monkey [19] = experiment: Inhibition of DPP4 in cynomolgus monkey plasma assessed as remaining activity at 3 mg/kg, po after 48 hrs relative to control; type: functional, Macaca fascicularis
Rattus norvegicus [20] = organism: Rattus norvegicus; experiment: Renal clearance in rat as % of total clearance; type: ADME, organism-based, Kidney; conditions: in vivo
Canis familiaris = organism: Canis familiaris; experiment: Renal clearance in dog as % of total clearance; type: ADME, organism-based, Canis lupus familiaris, Kidney; conditions: in vivo
Rhesus monkey = experiment: Renal clearance in monkey as % of total clearance; type: ADME, organism-based, Macaca mulatta, Kidney; conditions: in vivo

| SMILES | logD [1] | permeability [2] | Activity (Rattus norvegicus [3]) | Phospholipidosis (Phospholipidosis) | other results |
| --- | --- | --- | --- | --- | --- |
| COc1cc2c(cc1OC)[C@@H]1C[C@H](N)[C@@H](N3CCCCC3=O)CN1CC2 | -0.5 | 0.2 ×10⁻⁶ cm/s | 56% | Not Active | inhibition at 10 µM (hERG (KCNH2) [4]): 45%; clearance [5]: 25 mL/min/kg; clearance [6]: 18.7 mL/min/kg; Vd [7]: 5.9 L/kg; Vd [8]: 8.6 L/kg; half-life [9]: 4.5 h; half-life [10]: 9.4 h; bioavailability [11]: 47%; bioavailability [12]: 64% |
| COc1cc2c(cc1OC)C1CC(N)C(N3CCCC[S+]3[O-])CN1CC2 (stereo not given) | -0.4 | 0.7 ×10⁻⁶ cm/s | 18% | – | – |
| COc1cc2c(cc1OC)C1CC(N)C(N3CCOC3=O)CN1CC2 (stereo not given) | -0.8 | 0 ×10⁻⁶ cm/s | – | – | – |
| COc1cc2c(cc1OC)[C@@H]1C[C@H](N)[C@@H](N3C[C@@H](C)CC3=O)CN1CC2 | -0.1 | 0.6 ×10⁻⁶ cm/s | 79% | Not Active | Activity (Mus musculus [13]): 50%; Activity (Mus musculus [14]): Active; Activity (Rattus norvegicus [15]): Active |
| CCC1CC(=O)N(C2CN3CCc4cc(OC)c(OC)cc4C3CC2N)C1 (stereo not given) | -0.1 | 0.9 ×10⁻⁶ cm/s | 31% | – | inhibition at 10 µM (hERG (KCNH2) [4]): 45% |
| COc1cc2c(cc1OC)C1CC(N)C(N3CCCOC3=O)CN1CC2 (stereo not given) | -0.9 | 0.1 ×10⁻⁶ cm/s | – | – | – |
| COc1cc2c(cc1OC)C1CC(N)C(N3CCCCC3=O)CN1CC2 (stereo not given) | -0.5 | 0.2 ×10⁻⁶ cm/s | 33% | – | – |
| COc1cc2c(cc1OC)C1CC(N)C(N3CC(C)CC3=O)CN1CC2 (stereo not given) | -0.2 | 0.2 ×10⁻⁶ cm/s | 42% | Not Active | inhibition at 10 µM (hERG (KCNH2) [4]): 9% |
| COc1cc2c(cc1OC)C1CC(N)C(N3CC(C)CCC3=O)CN1CC2 (stereo not given) | 0 | 1.1 ×10⁻⁶ cm/s | 34% | Not Active | – |
| COc1cc2c(cc1OC)C1CC(N)C(N3CCC(C)CC3=O)CN1CC2 (stereo not given) | -0.2 | 0.5 ×10⁻⁶ cm/s | 16% | – | – |
| COc1cc2c(cc1OC)C1CC(N)C(N3CCCC3=O)CN1CC2 (stereo not given) | -0.5 | 0.6 ×10⁻⁶ cm/s | – | – | – |
| COc1cc2c(cc1OC)[C@@H]1C[C@H](N)[C@@H](N3C[C@@H](CF)CC3=O)CN1CC2 [CARMEGLIPTIN] | -0.5 | 0.13 ×10⁻⁶ cm/s | 66% | Not Active | Activity (Mus musculus [13]): 30%; Activity (Mus musculus [14]): Active; Activity (Rattus norvegicus [15]): Active; Activity (Rattus norvegicus [16]): 1.3 mg/min/kg; IC20 (hERG (KCNH2) [17]): 21 µM; clearance [5]: 24 mL/min/kg; clearance [6]: 8.5 mL/min/kg; Vd [7]: 6.3 L/kg; Vd [8]: 3.3 L/kg; half-life [9]: 5.3 h; half-life [10]: 6.8 h; bioavailability [11]: 28%; bioavailability [12]: 33%; Activity (Cynomolgus monkey [18]): 40%; Activity (Cynomolgus monkey [19]): 60%; Fraction cleared renally (Rattus norvegicus [20]): 30%; Fraction cleared renally (Canis familiaris): 30%; Fraction cleared renally (Rhesus monkey): 30% |
| COc1cc2c(cc1OC)[C@@H]1C[C@H](N)[C@@H](N3C[C@H](C)CC3=O)CN1CC2 | -0.3 | 0.8 ×10⁻⁶ cm/s | 46% | – | – |
| COc1cc2c(cc1OC)C1CC(N)C(N3CCC[S+]3[O-])CN1CC2 (stereo not given) | -0.7 | 1.2 ×10⁻⁶ cm/s | – | – | – |
| COc1cc2c(cc1OC)[C@@H]1C[C@H](N)[C@@H](N3C[C@H](CF)CC3=O)CN1CC2 | -0.4 | 0.4 ×10⁻⁶ cm/s | 77% | Not Active | Activity (Mus musculus [13]): 20% |
